Experimental data reported in BindingDB's records for doi:10.1021/jm00106a035 (University of Maryland, 1991).

Tests used:
[1] = In vitro inhibitory activity towards [3H]cocaine binding to rat striatal tissue
[2] = as above; remark: listed apart in the source

Row | SMILES | IC50 [1] | IC50 [2]
1 | COC(=O)C1C2CC[C@H](C[C@@H]1OC(=O)Nc1ccccc1)N2C (stereo not given in full) | 5600 nM | –
2 | COC(=O)C1C2CC[C@H](C[C@@H]1OC(=O)Nc1cccc(N)c1)N2C (stereo not given in full) | 2070 nM | –
3 | COC(=O)C1C2CC[C@H](C[C@@H]1OC(=O)Nc1ccc([N+](=O)[O-])cc1)N2C (stereo not given in full) | 1090 nM | –
4 | COC(=O)C1C2CC[C@H](C[C@@H]1OC(=O)Nc1cccc([N+](=O)[O-])c1)N2C (stereo not given in full) | 37 nM | –
5 | COC(=O)[C@H]1[C@@H](OC(=O)c2ccccc2)C[C@@H]2CC[C@H]1N2C [Cocaine (-)] | – | 65 nM
